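Exposure lasted 48 hours, with cells grown in 96-well plates and compounds tested at five concentrations. At the GI50, growth is halved. TGI is the concentration that stops growth completely.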
How the values were obtained:
Assay in all cases: NCI anticancer screen, dose series, 48 h
NCI-H23 lung = system: NCI-H23 lung
OVCAR-4 ovarian = system: OVCAR-4 ovarian
SN12C renal = system: SN12C renal
NCI-H460 lung = system: NCI-H460 lung
OVCAR-3 ovarian = system: OVCAR-3 ovarian
SF-295 CNS = system: SF-295 CNS
HCT-15 colon = system: HCT-15 colon
UACC-257 melanoma = system: UACC-257 melanoma
CAKI-1 renal = system: CAKI-1 renal
786-0 renal = system: 786-0 renal
RPMI-8226 leukemia = system: RPMI-8226 leukemia
HT29 colon = system: HT29 colon
SR leukemia = system: SR leukemia
ACHN renal = system: ACHN renal
SNB-75 CNS = system: SNB-75 CNS
UO-31 renal = system: UO-31 renal
OVCAR-5 ovarian = system: OVCAR-5 ovarian
K-562 leukemia = system: K-562 leukemia
HCC-2998 colon = system: HCC-2998 colon
KM12 colon = system: KM12 colon
COLO 205 colon = system: COLO 205 colon
PC-3 prostate = system: PC-3 prostate
MDA-MB-435 = system: MDA-MB-435
EKVX NSCLC = system: EKVX NSCLC
HOP-92 NSCLC = system: HOP-92 NSCLC
M14 melanoma = system: M14 melanoma
SNB-19 CNS = system: SNB-19 CNS
A549 NSCLC = system: A549 NSCLC
RXF 393 renal = system: RXF 393 renal
SK-OV-3 ovarian = system: SK-OV-3 ovarian
SK-MEL-2 melanoma = system: SK-MEL-2 melanoma
MALME-3M melanoma = system: MALME-3M melanoma
NCI-H522 lung = system: NCI-H522 lung
SF-539 CNS = system: SF-539 CNS
SK-MEL-28 melanoma = system: SK-MEL-28 melanoma
NCI/ADR-RES ovarian = system: NCI/ADR-RES ovarian
SK-MEL-5 melanoma = system: SK-MEL-5 melanoma
IGROV1 ovarian = system: IGROV1 ovarian
A498 renal = system: A498 renal
NCI-H226 lung = system: NCI-H226 lung
UACC-62 melanoma = system: UACC-62 melanoma
HS 578T breast = system: HS 578T breast
LOX IMVI melanoma = system: LOX IMVI melanoma
CCRF-CEM leukemia = system: CCRF-CEM leukemia
OVCAR-8 ovarian = system: OVCAR-8 ovarian
HCT-116 colon = system: HCT-116 colon
MOLT-4 leukemia = system: MOLT-4 leukemia
BT-549 breast = system: BT-549 breast
SW-620 colon = system: SW-620 colon
HL-60(TB) leukemia = system: HL-60(TB) leukemia
SF-268 CNS = system: SF-268 CNS
DU-145 prostate = system: DU-145 prostate
MDA-MB-231 breast = system: MDA-MB-231 breast
T-47D breast = system: T-47D breast
TK-10 renal = system: TK-10 renal
MCF7 breast = system: MCF7 breast
U251 CNS = system: U251 CNS
HOP-62 NSCLC = system: HOP-62 NSCLC

SMILES: O=C(O)c1ccc(NCc2nc3ccccc3[nH]2)cc1
- GI50 (NCI-H23 lung): > 100 µM
- TGI (NCI-H23 lung): > 100 µM
- GI50 (OVCAR-4 ovarian): > 100 µM
- TGI (OVCAR-4 ovarian): > 100 µM
- GI50 (SN12C renal): > 100 µM
- TGI (SN12C renal): > 100 µM
- GI50 (NCI-H460 lung): > 100 µM
- TGI (NCI-H460 lung): > 100 µM
- GI50 (OVCAR-3 ovarian): > 100 µM
- TGI (OVCAR-3 ovarian): > 100 µM
- GI50 (SF-295 CNS): > 100 µM
- TGI (SF-295 CNS): > 100 µM
- GI50 (HCT-15 colon): > 100 µM
- TGI (HCT-15 colon): > 100 µM
- GI50 (UACC-257 melanoma): > 100 µM
- TGI (UACC-257 melanoma): > 100 µM
- GI50 (CAKI-1 renal): > 100 µM
- TGI (CAKI-1 renal): > 100 µM
- GI50 (786-0 renal): > 100 µM
- TGI (786-0 renal): > 100 µM
- GI50 (RPMI-8226 leukemia): > 100 µM
- TGI (RPMI-8226 leukemia): > 100 µM
- GI50 (HT29 colon): > 100 µM
- TGI (HT29 colon): > 100 µM
- GI50 (SR leukemia): > 100 µM
- TGI (SR leukemia): > 100 µM
- GI50 (ACHN renal): > 100 µM
- TGI (ACHN renal): > 100 µM
- GI50 (SNB-75 CNS): > 100 µM
- TGI (SNB-75 CNS): > 100 µM
- GI50 (UO-31 renal): > 100 µM
- TGI (UO-31 renal): > 100 µM
- GI50 (OVCAR-5 ovarian): > 100 µM
- TGI (OVCAR-5 ovarian): > 100 µM
- GI50 (K-562 leukemia): > 100 µM
- TGI (K-562 leukemia): > 100 µM
- GI50 (HCC-2998 colon): > 100 µM
- TGI (HCC-2998 colon): > 100 µM
- GI50 (KM12 colon): > 100 µM
- TGI (KM12 colon): > 100 µM
- GI50 (COLO 205 colon): > 100 µM
- TGI (COLO 205 colon): > 100 µM
- GI50 (PC-3 prostate): > 100 µM
- TGI (PC-3 prostate): > 100 µM
- GI50 (MDA-MB-435): > 100 µM
- TGI (MDA-MB-435): > 100 µM
- GI50 (EKVX NSCLC): > 100 µM
- TGI (EKVX NSCLC): > 100 µM
- GI50 (HOP-92 NSCLC): > 100 µM
- TGI (HOP-92 NSCLC): > 100 µM
- GI50 (M14 melanoma): > 100 µM
- TGI (M14 melanoma): > 100 µM
- GI50 (SNB-19 CNS): > 100 µM
- TGI (SNB-19 CNS): > 100 µM
- GI50 (A549 NSCLC): > 100 µM
- TGI (A549 NSCLC): > 100 µM
- GI50 (RXF 393 renal): > 100 µM
- TGI (RXF 393 renal): > 100 µM
- GI50 (SK-OV-3 ovarian): > 100 µM
- TGI (SK-OV-3 ovarian): > 100 µM
- GI50 (SK-MEL-2 melanoma): > 100 µM
- TGI (SK-MEL-2 melanoma): > 100 µM
- GI50 (MALME-3M melanoma): 1250 nM
- TGI (MALME-3M melanoma): 7.52 µM
- GI50 (NCI-H522 lung): > 100 µM
- TGI (NCI-H522 lung): > 100 µM
- GI50 (SF-539 CNS): > 100 µM
- TGI (SF-539 CNS): > 100 µM
- GI50 (SK-MEL-28 melanoma): > 100 µM
- TGI (SK-MEL-28 melanoma): > 100 µM
- GI50 (NCI/ADR-RES ovarian): > 100 µM
- TGI (NCI/ADR-RES ovarian): > 100 µM
- GI50 (SK-MEL-5 melanoma): > 100 µM
- TGI (SK-MEL-5 melanoma): > 100 µM
- GI50 (IGROV1 ovarian): > 100 µM
- TGI (IGROV1 ovarian): > 100 µM
- TGI (A498 renal): > 100 µM
- GI50 (NCI-H226 lung): > 100 µM
- TGI (NCI-H226 lung): > 100 µM
- GI50 (UACC-62 melanoma): > 100 µM
- TGI (UACC-62 melanoma): > 100 µM
- GI50 (HS 578T breast): > 100 µM
- TGI (HS 578T breast): > 100 µM
- GI50 (LOX IMVI melanoma): > 100 µM
- TGI (LOX IMVI melanoma): > 100 µM
- GI50 (CCRF-CEM leukemia): > 100 µM
- TGI (CCRF-CEM leukemia): > 100 µM
- GI50 (OVCAR-8 ovarian): > 100 µM
- TGI (OVCAR-8 ovarian): > 100 µM
- GI50 (HCT-116 colon): > 100 µM
- TGI (HCT-116 colon): > 100 µM
- GI50 (MOLT-4 leukemia): > 100 µM
- TGI (MOLT-4 leukemia): > 100 µM
- GI50 (BT-549 breast): > 100 µM
- TGI (BT-549 breast): > 100 µM
- GI50 (SW-620 colon): > 100 µM
- TGI (SW-620 colon): > 100 µM
- GI50 (HL-60(TB) leukemia): > 100 µM
- TGI (HL-60(TB) leukemia): > 100 µM
- GI50 (SF-268 CNS): > 100 µM
- TGI (SF-268 CNS): > 100 µM
- GI50 (DU-145 prostate): > 100 µM
- TGI (DU-145 prostate): > 100 µM
- GI50 (MDA-MB-231 breast): > 100 µM
- TGI (MDA-MB-231 breast): > 100 µM
- GI50 (T-47D breast): > 100 µM
- TGI (T-47D breast): > 100 µM
- GI50 (TK-10 renal): > 100 µM
- TGI (TK-10 renal): > 100 µM
- GI50 (MCF7 breast): 99.9 µM
- TGI (MCF7 breast): > 100 µM
- GI50 (U251 CNS): > 100 µM
- TGI (U251 CNS): > 100 µM
- GI50 (HOP-62 NSCLC): > 100 µM
- TGI (HOP-62 NSCLC): > 100 µM

From PubChem BioAssay (NCI)
